Source: patent US9676782B2, “Substituted pyrazolo[1,5-a]pyrazines as negative allosteric modulators of metabotropic glutamate receptor 3” (Vanderbilt University, priority 2014, dated 2017)
pEC50, pIC50: −log10 of the molar value. Read-outs that look alike come from different tables or passages of the source.

What was measured:
rat mGlu3 = rat mGlu3 (Rattus norvegicus (Rat), UniProt P31422); assay: mGlu3 Ca2+ flux assay; type: cell-based; settings: for pIC50: read-out: rat mGlu3 IC50; for remaining activity at 30 µM: amplitude of response at 30 μM test compound as % of maximal response to glutamate, read-out: rat mGlu3 Glu max (%)
Chain of rat mGlu3 (P31422 23-879): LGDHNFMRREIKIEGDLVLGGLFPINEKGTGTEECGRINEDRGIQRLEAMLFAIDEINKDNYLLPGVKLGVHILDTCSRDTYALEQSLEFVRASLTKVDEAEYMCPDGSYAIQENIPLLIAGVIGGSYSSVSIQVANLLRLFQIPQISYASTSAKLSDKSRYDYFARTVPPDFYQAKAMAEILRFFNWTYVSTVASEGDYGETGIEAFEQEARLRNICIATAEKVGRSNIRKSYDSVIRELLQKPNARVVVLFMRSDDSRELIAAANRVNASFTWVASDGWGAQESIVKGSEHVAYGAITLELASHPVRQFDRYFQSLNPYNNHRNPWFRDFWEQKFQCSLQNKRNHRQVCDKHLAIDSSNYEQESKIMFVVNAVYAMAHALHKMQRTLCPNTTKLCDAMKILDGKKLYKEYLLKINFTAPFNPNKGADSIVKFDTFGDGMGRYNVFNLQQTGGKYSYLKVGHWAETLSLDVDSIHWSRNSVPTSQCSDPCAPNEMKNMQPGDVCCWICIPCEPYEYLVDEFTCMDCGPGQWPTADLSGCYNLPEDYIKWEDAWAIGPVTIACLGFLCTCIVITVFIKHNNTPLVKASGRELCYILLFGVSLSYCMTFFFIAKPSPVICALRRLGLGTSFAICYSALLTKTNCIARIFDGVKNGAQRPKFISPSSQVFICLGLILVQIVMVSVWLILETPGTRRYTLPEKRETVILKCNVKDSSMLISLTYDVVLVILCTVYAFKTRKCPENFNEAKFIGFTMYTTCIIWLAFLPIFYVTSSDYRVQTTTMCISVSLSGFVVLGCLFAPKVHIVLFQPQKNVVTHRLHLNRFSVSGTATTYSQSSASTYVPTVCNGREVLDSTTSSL
How it was run: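 This calcium mobilization assay used rat mGlu3 cells cultured overnight (37° C., 5% CO2) and read on the FDSS7000 after a 10 minute room-temperature incubation in 20 μL assay buffer. Each of 360 readings per well was divided by its initial value (F/F0). Potency came from fitting normalized responses against log concentration with an unconstrained 4 parameter logistic equation, weighting triplicate points equally.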

rat mGlu5 = rat mGlu5 (Rattus norvegicus (Rat), UniProt P31424); assay: mGlu5 Ca2+ flux assay; type: cell-based; settings: for pIC50 / Emax at 30 µM: compound noted as NAM or partial antagonist (PAnt) at mGlu5; for pIC50: glutamate EC80; for pIC50 / pEC50: read-out: rat mGlu5 EC50 or IC50; for Emax at 30 µM: response at 30 μM as % of maximal glutamate response, read-out: rat mGlu5 Glu max (%); for Fold selectivity (mGlu3 vs. mGlu5): ratio of rat mGlu5 EC50 or IC50 to rat mGlu3 IC50
Chain of rat mGlu5 (P31424 21-1203): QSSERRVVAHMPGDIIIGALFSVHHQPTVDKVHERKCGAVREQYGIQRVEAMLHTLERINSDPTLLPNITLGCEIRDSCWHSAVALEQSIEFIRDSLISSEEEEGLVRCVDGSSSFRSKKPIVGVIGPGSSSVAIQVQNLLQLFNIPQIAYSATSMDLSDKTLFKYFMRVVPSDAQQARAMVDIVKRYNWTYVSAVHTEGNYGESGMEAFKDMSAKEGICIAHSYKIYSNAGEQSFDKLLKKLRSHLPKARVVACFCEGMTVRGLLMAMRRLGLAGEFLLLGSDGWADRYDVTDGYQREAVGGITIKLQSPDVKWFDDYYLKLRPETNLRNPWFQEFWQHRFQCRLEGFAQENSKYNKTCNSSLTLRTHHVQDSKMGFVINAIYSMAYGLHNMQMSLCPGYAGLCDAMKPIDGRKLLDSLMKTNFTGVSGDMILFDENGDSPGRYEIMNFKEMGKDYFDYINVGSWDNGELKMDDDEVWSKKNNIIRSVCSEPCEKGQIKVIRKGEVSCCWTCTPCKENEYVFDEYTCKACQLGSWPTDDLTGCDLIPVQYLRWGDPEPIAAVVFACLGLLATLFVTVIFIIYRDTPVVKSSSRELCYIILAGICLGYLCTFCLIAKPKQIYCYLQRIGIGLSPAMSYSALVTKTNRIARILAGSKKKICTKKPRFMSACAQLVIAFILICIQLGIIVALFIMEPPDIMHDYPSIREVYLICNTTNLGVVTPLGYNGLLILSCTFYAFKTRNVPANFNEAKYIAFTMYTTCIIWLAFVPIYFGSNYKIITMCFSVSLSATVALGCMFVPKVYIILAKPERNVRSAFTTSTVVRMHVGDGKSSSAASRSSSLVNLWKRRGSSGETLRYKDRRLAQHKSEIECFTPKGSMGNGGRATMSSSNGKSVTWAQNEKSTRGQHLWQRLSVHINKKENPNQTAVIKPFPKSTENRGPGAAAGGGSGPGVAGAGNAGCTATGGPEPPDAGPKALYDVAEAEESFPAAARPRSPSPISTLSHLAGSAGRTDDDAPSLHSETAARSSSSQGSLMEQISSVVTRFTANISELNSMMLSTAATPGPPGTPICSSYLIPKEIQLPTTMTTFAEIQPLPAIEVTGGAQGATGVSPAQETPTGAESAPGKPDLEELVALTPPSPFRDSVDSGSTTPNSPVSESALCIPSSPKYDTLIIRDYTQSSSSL
How it was run: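 Ca2+ flux read kinetically (FDSS7000) after overnight culture at 37° C/5% CO2 and a 5 min room-temperature buffer step following dye removal. Signals expressed per well as F/F0 and normalized to peak glutamate response; EC50 fitted by free 4-parameter logistic, three replicates per concentration equally weighted.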

[1] = NAM potency, decrease of glutamate EC80 response, >30,000 = no measurable activity, >10,000 = no plateau

Compound	pIC50 (rat mGlu3; [1])	remaining activity at 30 µM (rat mGlu3) [%]	pIC50 (rat mGlu5)	Emax at 30 µM (rat mGlu5) [%]	Fold selectivity (mGlu3 vs. mGlu5) (rat mGlu5)	pEC50 (rat mGlu5)	pIC50 (rat mGlu3)
COc1ccc(N(C)Cc2cc3n(n2)CCN(c2cccc(F)c2Cl)C3=O)cc1 [Compound 126, 5-(2-chloro-3-fluorophenyl)-2-(((4-methoxyphenyl)(methyl)amino)methyl)-6,7-dihydropyrazolo[1,5-a]pyrazin-4(5H)-one]	5.80	1.5	< 5.00	56.8	>6.2		
COc1ccc(N(C)Cc2cc3n(n2)CCN(c2cc(Cl)ccc2F)C3=O)cc1 [Compound 127, 5-(5-chloro-2-fluorophenyl)-2-(((4-methoxyphenyl)(methyl)amino)methyl)-6,7-dihydropyrazolo[1,5-a]pyrazin-4(5H)-one]	5.90	2.32	< 5.00	54.6	>7.9		
COc1ccc(N(C)Cc2cc3n(n2)CCN(c2c(F)cc(Cl)cc2F)C3=O)cc1 [Compound 128, 5-(4-chloro-2,6-difluorophenyl)-2-(((4-methoxyphenyl)(methyl)amino)methyl)-6,7-dihydropyrazolo[1,5-a]pyrazin-4(5H)-one]	5.73	1.8			>16	< 4.52	
COc1ccc(N(C)Cc2cc3n(n2)CCN(c2cc(F)ccc2Cl)C3=O)cc1 [Compound 129, 5-(2-chloro-5-fluorophenyl)-2-(((4-methoxyphenyl)(methyl)amino)methyl)-6,7-dihydropyrazolo[1,5-a]pyrazin-4(5H)-one]	5.69	2.02			>14	< 4.52	
COc1ccc(N(C)Cc2cc3n(n2)CCN(c2ccc(F)cc2Cl)C3=O)cc1 [Compound 130, 5-(2-chloro-4-fluorophenyl)-2-(((4-methoxyphenyl)(methyl)amino)methyl)-6,7-dihydropyrazolo[1,5-a]pyrazin-4(5H)-one]	5.71	2.05			>15	< 4.52	
COc1ccc(N(C)Cc2cc3n(n2)CCN(c2cc(F)cc(Cl)c2)C3=O)cc1 [Compound 131, 5-(3-chloro-5-fluorophenyl)-2-(((4-methoxyphenyl)(methyl)amino)methyl)-6,7-dihydropyrazolo[1,5-a]pyrazin-4(5H)-one]		1.95			>21	< 4.52	5.86
COc1ccc(N(C)Cc2cc3n(n2)CCN(c2cc(F)cc(OC)c2)C3=O)cc1 [Compound 132, 5-(3-fluoro-5-methoxyphenyl)-2-(((4-methoxyphenyl)(methyl)amino)methyl)-6,7-dihydropyrazolo[1,5-a]pyrazin-4(5H)-one]	5.87	1.5			>22	< 4.52	
COc1ccc(N(C)Cc2cc3n(n2)CCN(c2ccc(F)c(Cl)c2)C3=O)cc1 [Compound 133, 5-(3-chloro-4-fluorophenyl)-2-(((4-methoxyphenyl)(methyl)amino)methyl)-6,7-dihydropyrazolo[1,5-a]pyrazin-4(5H)-one]	5.92	2.13			>24	< 4.52	
COc1ccc(N(C)Cc2cc3n(n2)CCN(c2cc(Cl)cc(OC)c2)C3=O)cc1 [Compound 134, 5-(3-chloro-5-methoxyphenyl)-2-(((4-methoxyphenyl)(methyl)amino)methyl)-6,7-dihydropyrazolo[1,5-a]pyrazin-4(5H)-one]	5.77	1.77			>17	< 4.52	
COc1ccc(N(C)Cc2cc3n(n2)CCN(c2cccc(Cl)c2F)C3=O)cc1 [Compound 135, 5-(3-chloro-2-fluorophenyl)-2-(((4-methoxyphenyl)(methyl)amino)methyl)-6,7-dihydropyrazolo[1,5-a]pyrazin-4(5H)-one]	5.92	7.26			>24	< 4.52	
COc1ccc(N(C)Cc2cc3n(n2)CCN(c2ccc(Cl)c(F)c2)C3=O)cc1 [Compound 136, 5-(4-chloro-3-fluorophenyl)-2-(((4-methoxyphenyl)(methyl)amino)methyl)-6,7-dihydropyrazolo[1,5-a]pyrazin-4(5H)-one]	5.90	2.43			>23	< 4.52	
Cc1cnc(N2CCn3nc(CNc4ccc(OC(F)F)cc4F)cc3C2=O)s1 [Compound 137, 2-(((4-(difluoromethoxy)-2-fluorophenyl)amino)methyl)-5-(5-methylthiazol-2-yl)-6,7-dihydropyrazolo[1,5-a]pyrazin-4(5H)-one]						< 4.52	< 4.52
O=C1c2cc(CNc3ccc(OC(F)F)cc3F)nn2CCN1c1cccc(F)n1 [Compound 138, 2-(((4-(difluoromethoxy)-2-fluorophenyl)amino)methyl)-5-(6-fluoropyridin-2-yl)-6,7-dihydropyrazolo[1,5-a]pyrazin-4(5H)-one]		2.05			>36	< 4.52	6.09
O=C1c2cc(CNc3ccc(OC(F)F)cc3F)nn2CCN1c1cc(Cl)ccn1 [Compound 139, 5-(4-chloropyridin-2-yl)-2-(((4-(difluoromethoxy)-2-fluorophenyl)amino)methyl)-6,7-dihydropyrazolo[1,5-a]pyrazin-4(5H)-one]	5.75	2.59			>17	< 4.52	
Cc1nc(N2CCn3nc(CNc4ccc(OC(F)F)cc4F)cc3C2=O)cs1 [Compound 140, 2-(((4-(difluoromethoxy)-2-fluorophenyl)amino)methyl)-5-(2-methylthiazol-4-yl)-6,7-dihydropyrazolo[1,5-a]pyrazin-4(5H)-one]	6.20	2.43			>48	< 4.52	
O=C1c2cc(CNc3ccc(OC(F)F)cc3F)nn2CCN1c1ccc(F)cc1F [Compound 141, 2-(((4-(difluoromethoxy)-2-fluorophenyl)amino)methyl)-5-(2,4-difluorophenyl)-6,7-dihydropyrazolo[1,5-a]pyrazin-4(5H)-one]	6.15	1.87			>42	< 4.52	
COc1cccc(N2CCn3nc(CNc4ccc(OC(F)F)cc4F)cc3C2=O)c1 [Compound 142, 2-(((4-(difluoromethoxy)-2-fluorophenyl)amino)methyl)-5-(3-methoxyphenyl)-6,7-dihydropyrazolo[1,5-a]pyrazin-4(5H)-one]	6.06	1.5			>34	< 4.52	
O=C1c2cc(CNc3ccc(OC(F)F)cc3F)nn2CCN1c1ncccc1F [Compound 143, 2-(((4-(difluoromethoxy)-2-fluorophenyl)amino)methyl)-5-(3-fluoropyridin-2-yl)-6,7-dihydropyrazolo[1,5-a]pyrazin-4(5H)-one]	6.02	1.31			>31	< 4.52	
Cc1ccc(N2CCn3nc(CNc4ccc(OC(F)F)cc4F)cc3C2=O)nc1 [Compound 144, 2-(((4-(difluoromethoxy)-2-fluorophenyl)amino)methyl)-5-(5-methylpyridin-2-yl)-6,7-dihydropyrazolo[1,5-a]pyrazin-4(5H)-one]	5.76	5.68			>17	< 4.52	
O=C1c2cc(CNc3ccc(OC(F)F)cc3F)nn2CCN1c1ccc(F)c(F)c1 [Compound 145, 2-(((4-(difluoromethoxy)-2-fluorophenyl)amino)methyl)-5-(3,4-difluorophenyl)-6,7-dihydropyrazolo[1,5-a]pyrazin-4(5H)-one]	6.10	2.55			>37	< 4.52	
O=C1c2cc(CNc3ccc(OC(F)F)cc3F)nn2CCN1c1ccc(F)cn1 [Compound 146, 2-(((4-(difluoromethoxy)-2-fluorophenyl)amino)methyl)-5-(5-fluoropyridin-2-yl)-6,7-dihydropyrazolo[1,5-a]pyrazin-4(5H)-one]	6.24	2.03			>51	< 4.52	
COc1cc(F)cc(N2CCn3nc(CNc4ccc(OC(F)F)cc4F)cc3C2=O)c1 [Compound 147, 2-(((4-(difluoromethoxy)-2-fluorophenyl)amino)methyl)-5-(3-fluoro-5-methoxyphenyl)-6,7-dihydropyrazolo[1,5-a]pyrazin-4(5H)-one]	5.90	1.67			>23	< 4.52	
O=C1c2cc(CNc3ccc(OC(F)F)cc3F)nn2CCN1c1ccc(Cl)cn1 [Compound 148, 5-(5-chloropyridin-2-yl)-2-(((4-(difluoromethoxy)-2-fluorophenyl)amino)methyl)-6,7-dihydropyrazolo[1,5-a]pyrazin-4(5H)-one]	6.03	3.97			>32	< 4.52	
